Tests used:
[1] = system: CMV stimulated human PBMC; test: Human PBMC antigen specific (CMV) recall response in vitro, cytokines by Luminex; format: cell-based; conditions: CMV stimulation, 5 day incubation; for IFN gamma production from PBMC: FIG. 11B
Protocol: In order to test the efficacy of anti-LIGHT mAbs on stimulated PBMC a recall antigen CMV (cytomegalovirus) lysate was utilised to stimulate PBMC from human CMV-positive donors (ImmunXperts, Belgium). 200 000 cells per well in RPMI (Thermofisher cat. no. 11875) plus 10% FBS (GIBCO) was added to CMV lysate (Serion immunologics cat. no. BA109VS, final concentration 10 ug/ml) with test mAbs in a volume of 200 ul. After a 5 day incubation at 37C and 5% CO2 the media was recovered by centrifugation and assayed for cytokines by Luminex immunoassay (ThermoFisher).

[2] = system: DSS-induced colitis in hu-NOG mice; test: DSS-induced acute colitis in humanized (hu-NOG) mice; format: in vivo, mouse (hu-NOG); conditions: i.p. days 0, 3, 6, 9, versus IgG control, FIG. 9
Protocol: The experiments were carried out with the NOD/Shi-scid/IL-2Rγnull immunodeficient mouse strain (NOG) engrafted with CD34+ hematopoietic stem cells isolated from human cord blood as described in Manfroi B et al. (Cancer Res. 2017; 77:1097-1107). The reconstitution of the human immune system in the mice occurred for at least 14 weeks, and hu-mice were used that had at least 25% human CD45+/total CD45 cells. Female hu-NOG mice were randomised into 3 groups (n=10) taking into account the humanization rate and the CD34+ cell donors. All animal studies described in this study have been reviewed and approved by the local ethic committee (CELEAG). Mice were allowed to acclimate to the experimental environment for 5 days prior to the beginning of the experiment. The DSS was administrated for 7 days, from day 2 to 8. The DSS (3%) was added to the drinking water (ad libitum) and freshly renewed every two days.
All treatments started before the DSS-induced colitis. 3B04 variant 16 (5 mg/kg) and the isotype control and anti-TNF (Humira) antibodies (10 mg/kg) were administrated i.p. on days 0, 3, 6, 9. The experiment was terminated on day 12. The following parameters were recorded daily for 12 days: body weight in grams (g); diarrhea and stool consistency; bleeding and mortality. The global clinical score was calculated as follows: […]

In the case of `C[C@@H]1CCN(C(=O)CC#N)C[C@@H]1N(C)c1ncnc2[nH]ccc12` [Tofacitinib, reference compound], the “IL-17 production from PBMC” value ([1]; FIG. 11A) was “inhibited” and the “IFN gamma production from PBMC” value [1] was “inhibited”.

For “Opdivo: anti-PD-1 antibody, positive control in the PBMC assay (10 ug/ml) [reference compound]”, the “IFN gamma production from PBMC” value [1] was “increased”.

For adalimumab [humira, reference compound], the Global clinical score [2] was “significant drop in the global clinical score from days 9 to 11”.
